Data on one molecule can be found in patent US4957909A, “Benzobicycloalkane derivatives as anticonvulsant neuroprotective agents” (American Home Products Corporation, priority 1990, dated 1990).

SMILES strings stand for the structures.

The subject of test [1] is male Swiss-albino mice (CD-1 strain). Put plainly: NMDA antagonism in mice: NMDA-induced generalized myoclonus and death, ED50 for survival. The settings on record: mice pretreated 30 min before NMDA 195 mg/kg i.p. In kind it is in vivo. How it is done: The mice were pretreated with the representative test compounds followed thirty minutes later with NMDA (195 mg/kg, i.p., the ED90 dose for generalized myoclonus). The mice were then observed for 30 minutes, noting the latency of onset of generalized myoclonus (uncontrollable hind leg scratching or limbs and/or torso muscle jerking with loss of righting reflex) and death. From the latter, the ED50 for survival is determined.

For test [2], the system named is NMDA-induced neuronal release of norepinephrine. The experiment in a line: Inhibition of NMDA-induced [3H]norepinephrine release from rat hippocampal slices. In kind it is cell-based. The settings on record: 100 μM concentration, NMDA 150 μM. The procedure:
In addition, the compounds involved herein were established as inhibitors of NMDA-induced neuronal release of norepinephrine by showing that (-)-13β-methylamino-3-methoxy-5α-methyl-5,6,7,8,9,10,11,12-octahydro-5,11-meth-anobenzocyclodecene inhibits 89 percent of the NMDA-inducednorepinephrine release at 100 μM concentration in the following standard test procedure:
Rat hippocampal slices (0.5 mm thick) were incubated (37° C.) for 30 minutes in oxygenated (bubbled 95% O2 /5% CO2), physiological medium (containing 117 mM NaCl, 4.7 mM KCl, 11.5 mM glucose, 1.2 mM MgCl2, 10 μM pargyline, 1 mM ascorbate, 1.2 mM NaH2 PO4 and 25 mM NaHCO3, adjusted to pH 7.4). The slices were then washed with 0.9% NaCl and incubated in physiological medium with 0.1 μM [^3 H] norepinephrine (30 minutes, 37° C.). The slices were again washed with 0.9% NaCl and then placed in tubes (borosilicate glass, 12×75 mm) containing 0.5 ml Mg^+2 -free physiological medium with 50 μM corticosterone and 10 μM desipramine added to minimize norepinephrine reuptake. Samples were analyzed for [^3 H] content at 5 minute intervals. After 75 minutes, the inhibitor drug was added. Fifteen minutes later NMDA was added to a concentration of 150 μM. The amount of [^3 H] released was measured by liquid scintillation spectroscopy. […]

Consider `CNC1C2CCCCCC1(C)c1cc(OC)ccc1C2` (single isomer, unassigned; (-)) [(-)-13β-methylamino-3-methoxy-5α-methyl-5,6,7,8,9,10,11,12-octahydro-5,11-methanobenzocyclodecene], for which the ED50 for survival in test [1] (i.p.) is 56 mg/kg; in test [1] (p.o.), 97 mg/kg. Besides, in test [2], the “inhibition of NMDA-induced norepinephrine release” value worked out at 89%.
